Drawing on patent US10633419B2, “Immunomodulators” (BRISTOL-MYERS SQUIBB COMPANY, priority 2014, dated 2020), this text covers IC50 for 13 compounds.

Positions of bridges follow the written chain, without caps; N, C: chain ends. Non-standard residues stand in square brackets, D forms with d. Residues, ends and D or L forms follow the SMILES beside them. *: point of attachment. Ala(1-CH2COOH-inden-3-yl) = N[C@@H](CC1=CC(CC(=O)O)c2ccccc21)C(=O)O; Trp(1-CH2COOH) = N[C@@H](Cc1cn(CC(=O)O)c2ccccc12)C(=O)O; X14 = O=C(O)CCCCCCCCCCNC(=O)CCC(=O)NCCCOCCOCCOCCCN*; Hyp = O=C(O)[C@@H]1C[C@@H](O)CN1; NMeNle = CCCC[C@H](NC)C(=O)O; NMeA = CN[C@@H](C)C(=O)O; Aun = NCCCCCCCCCCC(=O)O; Dab = NCC[C@H](N)C(=O)O

One may read the IC50 as the midpoint of a concentration-inhibition curve.

The target of the first experiment is T1, PD-L1 (Homo sapiens, UniProt Q9NZQ7).
T1 construct: hPDL1(19-239)-TVMV-His; made in house; host or cells: HEK293T
T1 sequence (Q9NZQ7 with tags, fused parts or gaps): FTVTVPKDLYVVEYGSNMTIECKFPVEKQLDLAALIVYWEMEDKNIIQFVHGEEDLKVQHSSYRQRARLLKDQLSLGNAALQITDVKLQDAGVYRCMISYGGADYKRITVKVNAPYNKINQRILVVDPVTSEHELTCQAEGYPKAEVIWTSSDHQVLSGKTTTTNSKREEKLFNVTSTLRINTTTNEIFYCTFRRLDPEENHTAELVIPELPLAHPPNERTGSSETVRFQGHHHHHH
In words: PD-1/PD-L1 Homogenous Time-Resolved Fluorescence (HTRF) binding assay (PD-1-Ig/PD-L1-His). To be noted: inhibition of PD-1-Ig binding to PD-L1-TVMV-His; value given as number; read-out: HTRF IC50. The method, boiled down: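 HTRF competition in dPBS with 0.1% BSA and 0.05% Tween-20: 20 nM PD-1-Ig added after 15 min compound pre-incubation with 10 nM PD-L1-His, then another 15 min. Signal (665/620 nm) after 30 min with APC anti-His (20 nM) and Eu anti-Ig (1 nM).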
(In general: TR-FRET usually uses a lanthanide donor and a delayed reading to cut background.)
On to `CCCC[C@H]1C(=O)N(C)[C@@H](CCCC)C(=O)N[C@@H](CC(C)C)C(=O)N[C@H](C(=O)NCCCOCCOCCOCCCNC(=O)CCC(=O)NCCCCCCCCCCC(=O)O)CSCC(=O)N[C@@H](Cc2ccc(O)cc2)C(=O)N(C)[C@@H](C)C(=O)N[C@@H](CC(N)=O)C(=O)N2CCC[C@H]2C(=O)N[C@@H](Cc2cnc[nH]2)C(=O)N[C@@H](CCC(=O)O)C(=O)N2C[C@H](O)C[C@H]2C(=O)N[C@@H](Cc2c[nH]c3ccccc23)C(=O)N[C@@H](CCN)C(=O)N[C@@H](Cc2cn(CC(=O)O)c3ccccc23)C(=O)N1C` [Example 11075] ({CH2CO}-Y[NMeA]NPHE[Hyp]W[Dab][Trp(1-CH2COOH)][NMeNle][NMeNle]LC-X14; thioether N-14), for which the IC50 was found to be 7.1 nM. With `CCCC[C@H]1C(=O)N(C)[C@@H](CCCC)C(=O)N[C@@H](CCC(=O)O)C(=O)N[C@H](C(=O)NCCCOCCOCCOCCCNC(=O)CCC(=O)NCCCCCCCCCCC(=O)O)CSCC(=O)N[C@@H](Cc2ccc(O)cc2)C(=O)N(C)[C@@H](C)C(=O)N[C@@H](CC(N)=O)C(=O)N2CCC[C@H]2C(=O)N[C@@H](Cc2cnc[nH]2)C(=O)N[C@@H](CCCCN)C(=O)N2C[C@H](O)C[C@H]2C(=O)N[C@@H](Cc2c[nH]c3ccccc23)C(=O)N[C@@H](CO)C(=O)N[C@@H](Cc2cn(CC(=O)O)c3ccccc23)C(=O)N1C` [Example 11080] ({CH2CO}-Y[NMeA]NPHK[Hyp]WS[Trp(1-CH2COOH)][NMeNle][NMeNle]EC-X14; thioether N-14), the concentration for half-maximal inhibition (IC50) is 12.7 nM.

Still in this experiment, the particulars now being: inhibition of PD-1-Ig binding to PD-L1-TVMV-His; value given as range class; read-out: HTRF IC50.
In the case of `CCCC[C@H]1C(=O)N(C)[C@@H](CCCC)C(=O)N[C@@H](CCCNC(=N)N)C(=O)N[C@H](C(=O)NCC(=O)NCCCOCCOCCOCCCNC(=O)CCC(=O)NCCCCCCCCCCC(=O)O)CSCC(=O)N[C@@H](Cc2ccc(O)cc2)C(=O)N(C)[C@@H](C)C(=O)N[C@@H](CC(=O)O)C(=O)N2CCC[C@H]2C(=O)N[C@@H](Cc2cnc[nH]2)C(=O)N[C@@H](CC(C)C)C(=O)N2C[C@H](O)C[C@H]2C(=O)N[C@@H](Cc2c[nH]c3ccccc23)C(=O)N[C@@H](CO)C(=O)N[C@@H](Cc2c[nH]c3ccccc23)C(=O)N1C` [Example 11068] ({CH2CO}-Y[NMeA]DPHL[Hyp]WSW[NMeNle][NMeNle]RCG-X14; thioether N-14), the half-inhibitory concentration (IC50) lay in the range of 0.3 to 9.9 nM.

For the compound `CCCC[C@H]1C(=O)N(C)[C@@H](CCCC)C(=O)N[C@@H](CCCNC(=N)N)C(=O)N[C@H](C(=O)NCC(=O)NCC(=O)N[C@@H](CC(=O)O)C(=O)NCCCCCCCCCCC(=O)O)CSCC(=O)N[C@@H](Cc2ccc(O)cc2)C(=O)N(C)[C@@H](C)C(=O)N[C@@H](CC(=O)O)C(=O)N2CCC[C@H]2C(=O)N[C@@H](Cc2cnc[nH]2)C(=O)N[C@@H](CC(C)C)C(=O)N2C[C@H](O)C[C@H]2C(=O)N[C@@H](Cc2c[nH]c3ccccc23)C(=O)N[C@@H](CO)C(=O)N[C@@H](Cc2c[nH]c3ccccc23)C(=O)N1C` [Example 11069] ({CH2CO}-Y[NMeA]DPHL[Hyp]WSW[NMeNle][NMeNle]RCGGD[Aun]-OH; thioether N-14), the IC50 lay in the range of 10 to 99 nM. As for `CCCC[C@H]1C(=O)N(C)[C@@H](CCCC)C(=O)N[C@@H](CCCNC(=N)N)C(=O)N[C@H](C(=O)NCC(=O)NCC(=O)NCC(=O)NCCCCCCCCCCC(=O)O)CSCC(=O)N[C@@H](Cc2ccc(O)cc2)C(=O)N(C)[C@@H](C)C(=O)N[C@@H](CC(=O)O)C(=O)N2CCC[C@H]2C(=O)N[C@@H](Cc2cnc[nH]2)C(=O)N[C@@H](CC(C)C)C(=O)N2C[C@H](O)C[C@H]2C(=O)N[C@@H](Cc2c[nH]c3ccccc23)C(=O)N[C@@H](CO)C(=O)N[C@@H](Cc2c[nH]c3ccccc23)C(=O)N1C` [Example 11070] ({CH2CO}-Y[NMeA]DPHL[Hyp]WSW[NMeNle][NMeNle]RCGGG[Aun]-OH; thioether N-14), the IC50 is 0.3 to 9.9 nM. Consider `CCCC[C@H]1C(=O)N(C)[C@@H](CCCC)C(=O)N[C@@H](CCCNC(=N)N)C(=O)N[C@H](C(=O)NCC(=O)NCC(=O)NCCCCCCCCCCC(=O)O)CSCC(=O)N[C@@H](Cc2ccc(O)cc2)C(=O)N(C)[C@@H](C)C(=O)N[C@@H](CC(=O)O)C(=O)N2CCC[C@H]2C(=O)N[C@@H](Cc2cnc[nH]2)C(=O)N[C@@H](CC(C)C)C(=O)N2C[C@H](O)C[C@H]2C(=O)N[C@@H](Cc2c[nH]c3ccccc23)C(=O)N[C@@H](CO)C(=O)N[C@@H](Cc2c[nH]c3ccccc23)C(=O)N1C` [Example 11071] ({CH2CO}-Y[NMeA]DPHL[Hyp]WSW[NMeNle][NMeNle]RCGG[Aun]-OH; thioether N-14), for which the 50% inhibitory concentration (IC50) lay within 0.3 to 9.9 nM.

`CCCC[C@H]1C(=O)N(C)[C@@H](CCCC)C(=O)N[C@@H](CC(C)C)C(=O)N[C@H](C(=O)NCCCOCCOCCOCCCNC(=O)CCC(=O)NCCCCCCCCCCC(=O)O)CSCC(=O)N[C@@H](Cc2ccc(O)cc2)C(=O)N(C)[C@@H](C)C(=O)N[C@@H](CC(N)=O)C(=O)N2CCC[C@H]2C(=O)N[C@@H](Cc2cnc[nH]2)C(=O)N[C@@H](CCC(=O)O)C(=O)N2C[C@H](O)C[C@H]2C(=O)N[C@@H](Cc2c[nH]c3ccccc23)C(=O)N[C@@H](CO)C(=O)N[C@@H](Cc2c[nH]c3ccccc23)C(=O)N1C` [Example 11073] ({CH2CO}-Y[NMeA]NPHE[Hyp]WSW[NMeNle][NMeNle]LC-X14; thioether N-14): the IC50 is 10 to 99 nM.

In the case of `CCCC[C@H]1C(=O)N(C)[C@@H](CCCC)C(=O)N[C@@H](CC(C)C)C(=O)N[C@H](C(=O)NCCCCCCCCCCC(=O)O)CSCC(=O)N[C@@H](Cc2ccc(O)cc2)C(=O)N(C)[C@@H](C)C(=O)N[C@@H](CC(N)=O)C(=O)N2CCC[C@H]2C(=O)N[C@@H](Cc2cnc[nH]2)C(=O)N[C@@H](CCC(=O)O)C(=O)N2C[C@H](O)C[C@H]2C(=O)N[C@@H](Cc2c[nH]c3ccccc23)C(=O)N[C@@H](CCN)C(=O)N[C@@H](CC2=CC(CC(=O)O)c3ccccc32)C(=O)N1C` (stereo partly shown) [Example 11076] ({CH2CO}-Y[NMeA]NPHE[Hyp]W[Dab][Ala(1-CH2COOH-inden-3-yl)][NMeNle][NMeNle]LC[Aun]-OH; thioether N-14), the IC50 is 10 to 99 nM. Regarding `CCCC[C@H]1C(=O)N(C)[C@@H](CCCC)C(=O)N[C@@H](CC(C)C)C(=O)N[C@H](C(=O)NCC(=O)NCCCCCCCCCCC(=O)O)CSCC(=O)N[C@@H](Cc2ccc(O)cc2)C(=O)N(C)[C@@H](C)C(=O)N[C@@H](CC(N)=O)C(=O)N2CCC[C@H]2C(=O)N[C@@H](Cc2cnc[nH]2)C(=O)N[C@@H](CCC(=O)O)C(=O)N2C[C@H](O)C[C@H]2C(=O)N[C@@H](Cc2c[nH]c3ccccc23)C(=O)N[C@@H](CCN)C(=O)N[C@@H](CC2=CC(CC(=O)O)c3ccccc32)C(=O)N1C` (stereo partly shown) [Example 11077] ({CH2CO}-Y[NMeA]NPHE[Hyp]W[Dab][Ala(1-CH2COOH-inden-3-yl)][NMeNle][NMeNle]LCG[Aun]-OH; thioether N-14), the half-inhibitory concentration (IC50) lay in the range of 0.3 to 9.9 nM. Turning to `CCCC[C@H]1C(=O)N(C)[C@@H](CCCC)C(=O)N[C@@H](CC(C)C)C(=O)N[C@H](C(=O)NCC(=O)NCC(=O)NCCCCCCCCCCC(=O)O)CSCC(=O)N[C@@H](Cc2ccc(O)cc2)C(=O)N(C)[C@@H](C)C(=O)N[C@@H](CC(N)=O)C(=O)N2CCC[C@H]2C(=O)N[C@@H](Cc2cnc[nH]2)C(=O)N[C@@H](CCC(=O)O)C(=O)N2C[C@H](O)C[C@H]2C(=O)N[C@@H](Cc2c[nH]c3ccccc23)C(=O)N[C@@H](CCN)C(=O)N[C@@H](CC2=CC(CC(=O)O)c3ccccc32)C(=O)N1C` (stereo partly shown) [Example 11078] ({CH2CO}-Y[NMeA]NPHE[Hyp]W[Dab][Ala(1-CH2COOH-inden-3-yl)][NMeNle][NMeNle]LCGG[Aun]-OH; thioether N-14), the half-inhibitory concentration (IC50) fell in the range of 0.3 to 9.9 nM.

For `CCCC[C@H]1C(=O)N(C)[C@@H](CCCC)C(=O)N[C@@H](CC(C)C)C(=O)N[C@H](C(=O)NCC(=O)NCC(=O)NCC(=O)NCCCCCCCCCCC(=O)O)CSCC(=O)N[C@@H](Cc2ccc(O)cc2)C(=O)N(C)[C@@H](C)C(=O)N[C@@H](CC(N)=O)C(=O)N2CCC[C@H]2C(=O)N[C@@H](Cc2cnc[nH]2)C(=O)N[C@@H](CCC(=O)O)C(=O)N2C[C@H](O)C[C@H]2C(=O)N[C@@H](Cc2c[nH]c3ccccc23)C(=O)N[C@@H](CCN)C(=O)N[C@@H](Cc2cn(CC(=O)O)c3ccccc23)C(=O)N1C` [Example 11079] ({CH2CO}-Y[NMeA]NPHE[Hyp]W[Dab][Trp(1-CH2COOH)][NMeNle][NMeNle]LCGGG[Aun]-OH; thioether N-14), the IC50 lay in the range of 10 to 99 nM. On to `CCCC[C@H]1C(=O)N(C)[C@@H](CCCC)C(=O)N[C@@H](CC(C)C)C(=O)N[C@H](C(=O)NCCCCCCCCCCC(=O)O)CSCC(=O)N[C@@H](Cc2ccc(O)cc2)C(=O)N(C)[C@@H](C)C(=O)N[C@@H](CC(N)=O)C(=O)N2CCC[C@H]2C(=O)N[C@@H](CO)C(=O)N[C@@H](CCC(N)=O)C(=O)N2C[C@H](O)C[C@H]2C(=O)N[C@@H](Cc2c[nH]c3ccccc23)C(=O)N[C@@H](CO)C(=O)N[C@@H](Cc2cn(CC(=O)O)c3ccccc23)C(=O)N1C` [Example 11082] ({CH2CO}-Y[NMeA]NPSQ[Hyp]WS[Trp(1-CH2COOH)][NMeNle][NMeNle]LC[Aun]-OH; thioether N-14), for which the half-inhibitory concentration (IC50) was in the range of 10 to 99 nM. Same read-out and setting: with `CCCC[C@H]1C(=O)N(C)[C@@H](CCCC)C(=O)N[C@@H](CC(C)C)C(=O)N[C@H](C(=O)NCCCOCCOCCOCCCNC(=O)CCC(=O)NCCCCCCCCCCC(=O)O)CSCC(=O)N[C@@H](Cc2ccc(O)cc2)C(=O)N(C)[C@@H](C)C(=O)N[C@@H](CC(N)=O)C(=O)N2CCC[C@H]2C(=O)N[C@@H](CO)C(=O)N[C@@H](CCC(N)=O)C(=O)N2C[C@H](O)C[C@H]2C(=O)N[C@@H](Cc2c[nH]c3ccccc23)C(=O)N[C@@H](CO)C(=O)N[C@@H](Cc2cn(CC(=O)O)c3ccccc23)C(=O)N1C` [Example 11083] ({CH2CO}-Y[NMeA]NPSQ[Hyp]WS[Trp(1-CH2COOH)][NMeNle][NMeNle]LC-X14; thioether N-14) the figure was 10 to 99 nM.
